Data set [1] relates to 4T1 murine breast cancer cells. Nature of the data set: In vitro cellular inhibition (MTT) and synergy quantification. It counts as cell-based. On the procedure: 4T1 cells were seeded in 96 well plates at a density of 500 cells/well. Cells were given 24 hours to adhere to the well plate. Afterwards, a series of ten drug or drug combination dilutions prepared in fresh media were administered to the cells, with a starting concentration of 100 μM. The drugs were incubated with the cells for 72 hours before the media was removed and replaced with 0.5 mg/ml of MTT reagent in media fresh media. The MTT reagent was left incubating with the cells for 4 hours, during which living cells metabolized the reagent to form solid formazan crystals. Afterwards, the MTT reagent in media was removed, and the crystallized formazan was dissolved in DMSO. The plate is shaken at 300 rpm for 15 minutes to fully dissolve the formazan crystals, and absorbance was measured at 590 nm via Spectramax i3 plate reader. The fraction of cells inhibited at a certain drug concentration was calculated by: […]
where A is the average absorbance of the treated wells, A0 is the average absorbance of the blank wells with DMSO, and AC is the average absorbance of the control untreated wells. The IC50 values for each treatment was then determined through fitting of the Hill equation for dose-response in GraphPad™. The Hill equation is given as follows: […]
with X as the drug concentration and Y as the fractional inhibition, and m is known as the Hill coefficient and is determined according to the fit.
To evaluate drug efficacy against 4T1, drugs were evaluated as single drugs and as combination treatments with DOX. Synergy was quantified using the combination index (CI)^10. The formula for CI is as follows:
Where [AC]50 and [BC]50 represent the IC50 of drugs A and B when given in combination, and the denominator represents the IC50 of single drugs A and B. CI<1 indicates synergy, while a CI=1 indicates additive effects, and a CI>1 indicates antagonism.

A further data set relates to 4T1 cells. Nature of the data set: Calreticulin exposure on 4T1 cells. It counts as cell-based, murine. As to conditions: 10 μM DOX, compared to untreated controls.
Data set [2] in a line: Drug release from liposomes into PBS at 37° C. over 24 hours, Example 1. It counts as physicochemical. As to conditions: release from liposomal formulation. How it is done: The release profile of drug from liposomes was studied using Amicon Ultra mini dialysis filters supplied by Millipore Sigma (Burlington, Mass.) at sink conditions^59. A tenfold dilution of each liposomal formulation in PBS was kept in the mini dialysis filter at 37° C. above a 1.1 ml PBS reservoir. Samples were placed on a plate shaker for constant agitation. […] All PBS reservoirs were analyzed for released drug content using HPLC.

Where [3] appears, read: free drugs and free drug combinations.
Where [4] appears, read: free drugs and free drug combinations, 72 hours, 500 cells/well.
Where [5] appears, read: Mus musculus, 72 h, free drugs and free drug combinations, 500 cells/well.

Where “and” joins values, the source holds several entries; their conditions need not be identical. Identical values can stand only once.

The IC50 is the concentration needed to halve the response being measured.

Method for 4T1 cells: Cells for antibody staining and flow cytometry studies were plated in 6-well plates in 3 ml of media and allowed to adhere overnight. […] Treatment was administered approximately 24 h after plating. Cells were harvested using 0.5 ml of trypsin and resuspended to establish 10^6 cells in 100 μl of cell staining buffer. Cells were washed once and incubated at room temperature with 1% CD16/32 in 100 μl of cell staining buffer. After another wash, cells were incubated for 30 min on ice with fluorescently labeled antibodies (Table 12) to distinguish tumor antigens or characteristic markers of immune cell subtypes. Antibody-stained cells were then washed twice before analysis with a BD LSRII flow cytometer.

Take `COc1cccc2c1C(=O)c1c(O)c3c(c(O)c1C2=O)C[C@@](O)(C(=O)CO)C[C@@H]3O[C@H]1C[C@H](N)[C@H](O)[C@H](C)O1` [DOX, Doxorubicin]: the “Hill coefficient, HC” value in data set [1] (setting [3]) came to 0.75 ± 0.04. In addition, the IC50 in data set [1] (setting [4]) is 0.036 µM. Further, in the data set with 4T1 cells, the “fold increase in calreticulin exposure on 4T1 cells” value is 1.8 fold.

Take `Nc1ccn([C@@H]2O[C@H](CO)[C@@H](O)C2(F)F)c(=O)n1` [GEM, gemcitabine]: the IC50 in data set [1] (setting [5]) turned out to be 0.012 ± 0.0003 µM; in data set [1] (Mus musculus, free drug), 0.012 ± 0.0003 µM. In data set [1] (setting [3]), the “Hill coefficient, HC” value is 1.8±0.09 and 1.83 ± 0.09.

On to `CCc1c2c(nc3ccc(OC(=O)N4CCC(N5CCCCC5)CC4)cc13)-c1cc3c(c(=O)n1C2)COC(=O)[C@]3(O)CC` [IRIN, irinotecan], for which the IC50 in data set [1] (setting [5]) was 14 µM; in data set [1] (setting [4]), 14 ± 0.7 µM. In addition, the “IRIN released within 24 hours” value in data set [2] is “less than 40%”.

(Values after patent US20230093147A1, “METHODS AND COMPOSITIONS RELATING TO IMPROVED COMBINATION THERAPIES” (PRESIDENT AND FELLOWS OF HARVARD COLLEGE, priority 2020, published 2023).)
